pIC50: −log10 of the molar value.
Biological target: truncated form of human NaV 1.8 with full channel activity (Homo sapiens, UniProt Q9Y5Y9)
Test: E-VIPR Assay Method B for detecting and measuring Nav inhibition (HEK cells, membrane potential FRET dyes, electrical stimulation)
Assay type: cell-based
Conditions: HEK cells expressing human NaV 1.8, Table 20B, read-out: Nav 1.8 MedChem Optical Assay EVIPR Assay Method B HS IC50
Excerpt: [formula] where X is the ratio response of the test compound. […] E-VIPR Assay Method B for Detecting and Measuring Nav Inhibition Properties Sodium ion channels are voltage-dependent proteins that can be activated by inducing membrane voltage changes by applying electric fields. The electrical stimulation instrument and methods of use, referred to as E-VIPR, are described in International Publication No. WO 2002/008748 A3 and C.-J. Huang et al. Characterization of voltage-gated sodium channel blockers by electrical stimulation and fluorescence detection of membrane potential, 24 Nature Biotech. 439-46 (2006), both of which are incorporated by reference in their entirety. The instrument comprises a microtiter plate handler, an optical system for exciting the coumarin dye while simultaneously recording the coumarin and oxonol emissions, a waveform generator, a current- or voltage-controlled amplifier, and parallel electrode pairs that are inserted into assay plate wells. Under integrated computer control, this instrument passes user-programmed electrical stimulus protocols to cells within the wells of the microtiter plate. […] Sigma #F4135), 1% NEAA (Non-Essential Amino Acids, Life Tech #11140), 1% HEPES (Life Tech #15630), 1% Pen-Strep (Penicillin-Streptomycin; […] Cells were expanded in vented cap flasks, with 95% humidity and 5% CO2. Reagents and Stock Solutions: • 100 mg/mL Pluronic F-127 (Sigma #P2443), in dry DMSO • Compound Plates: […] 5% KIR 2.1 Bacmam virus (produced in-house), prepared as described in Section 3.3 of J. A. Fornwald et al., Gene Expression in Mammalian Cells Using BacMam, a Modified Baculovirus System, 1350 Methods in Molecular Biology 95-116 (2016), the entire contents of which are incorporated by reference. • 5 mM DiSBAC6(3) (a voltage sensitive oxonol acceptor) (Aurora #00-100-010) in dry DMSO • 5 mM CC2-DMPE (a membrane-bound coumarin phospholipid FRET donor) (Aurora #00-100-008) in dry DMSO • 89 mM VABSC-1 in H2O. […] The solution was made by adding 10% Pluronic F127 stock equal to combined volumes of CC2-DMPE and DiSBAC6(3). The order of preparation was first mix Pluronic and CC2-DMPE, then add DiSBAC6(3), then while vortexing add Bath1/β-Cyclodextrin. […] Assay Protocol: […] Final DMSO concentration for all wells in the assay was 0.625% (0.75% DMSO was supplemented to the Compound Loading Buffer for a final DMSO concentration of 0.625%). 2) Hexyl Dye Solution was prepared. 3) Cell plates were prepared. On the day of the assay, the media was aspirated, and the cells were washed three times with 80 μL of Bath-1 buffer, maintaining 25 μL residual volume in each well. 4) 25 μL per well of Hexyl Dye Solution was dispensed into the cell plates. The cells were incubated for 20 minutes at room temp or ambient conditions in darkness. 5) 80 μL per well of Compound Loading Buffer was dispensed into compound plates. […] The mixture was incubated for 30 minutes at room temp/ambient conditions. […] A pre-stimulus recording was performed for 0.5 seconds to obtain the un-stimulated intensities baseline. The stimulatory waveform was followed by 0.5 seconds of post-stimulation recording to examine the relaxation to the resting state. Data Analysis: Data were analyzed and reported as normalized ratios of emission intensities measured in the 460 nm and 580 nm channels. The response as a function of time was reported as the ratios obtained using the following formula: [formula] The data were further reduced by calculating the initial (Ri) and final (Rf) ratios. These were the average ratio values during part or all of the pre-stimulation period and during sample points during the stimulation period. The fluorescence ratio (Rf/Ri) was then calculated and reported as a function of time. Control responses were obtained by performing assays in the presence of the positive control, and in the absence of pharmacological agents (DMSO vehicle negative control). Responses to the negative (N) and positive (P) controls were calculated as above. […]

Chain of truncated form of human NaV 1.8 with full channel activity (Q9Y5Y9 126-1722 limits assumed): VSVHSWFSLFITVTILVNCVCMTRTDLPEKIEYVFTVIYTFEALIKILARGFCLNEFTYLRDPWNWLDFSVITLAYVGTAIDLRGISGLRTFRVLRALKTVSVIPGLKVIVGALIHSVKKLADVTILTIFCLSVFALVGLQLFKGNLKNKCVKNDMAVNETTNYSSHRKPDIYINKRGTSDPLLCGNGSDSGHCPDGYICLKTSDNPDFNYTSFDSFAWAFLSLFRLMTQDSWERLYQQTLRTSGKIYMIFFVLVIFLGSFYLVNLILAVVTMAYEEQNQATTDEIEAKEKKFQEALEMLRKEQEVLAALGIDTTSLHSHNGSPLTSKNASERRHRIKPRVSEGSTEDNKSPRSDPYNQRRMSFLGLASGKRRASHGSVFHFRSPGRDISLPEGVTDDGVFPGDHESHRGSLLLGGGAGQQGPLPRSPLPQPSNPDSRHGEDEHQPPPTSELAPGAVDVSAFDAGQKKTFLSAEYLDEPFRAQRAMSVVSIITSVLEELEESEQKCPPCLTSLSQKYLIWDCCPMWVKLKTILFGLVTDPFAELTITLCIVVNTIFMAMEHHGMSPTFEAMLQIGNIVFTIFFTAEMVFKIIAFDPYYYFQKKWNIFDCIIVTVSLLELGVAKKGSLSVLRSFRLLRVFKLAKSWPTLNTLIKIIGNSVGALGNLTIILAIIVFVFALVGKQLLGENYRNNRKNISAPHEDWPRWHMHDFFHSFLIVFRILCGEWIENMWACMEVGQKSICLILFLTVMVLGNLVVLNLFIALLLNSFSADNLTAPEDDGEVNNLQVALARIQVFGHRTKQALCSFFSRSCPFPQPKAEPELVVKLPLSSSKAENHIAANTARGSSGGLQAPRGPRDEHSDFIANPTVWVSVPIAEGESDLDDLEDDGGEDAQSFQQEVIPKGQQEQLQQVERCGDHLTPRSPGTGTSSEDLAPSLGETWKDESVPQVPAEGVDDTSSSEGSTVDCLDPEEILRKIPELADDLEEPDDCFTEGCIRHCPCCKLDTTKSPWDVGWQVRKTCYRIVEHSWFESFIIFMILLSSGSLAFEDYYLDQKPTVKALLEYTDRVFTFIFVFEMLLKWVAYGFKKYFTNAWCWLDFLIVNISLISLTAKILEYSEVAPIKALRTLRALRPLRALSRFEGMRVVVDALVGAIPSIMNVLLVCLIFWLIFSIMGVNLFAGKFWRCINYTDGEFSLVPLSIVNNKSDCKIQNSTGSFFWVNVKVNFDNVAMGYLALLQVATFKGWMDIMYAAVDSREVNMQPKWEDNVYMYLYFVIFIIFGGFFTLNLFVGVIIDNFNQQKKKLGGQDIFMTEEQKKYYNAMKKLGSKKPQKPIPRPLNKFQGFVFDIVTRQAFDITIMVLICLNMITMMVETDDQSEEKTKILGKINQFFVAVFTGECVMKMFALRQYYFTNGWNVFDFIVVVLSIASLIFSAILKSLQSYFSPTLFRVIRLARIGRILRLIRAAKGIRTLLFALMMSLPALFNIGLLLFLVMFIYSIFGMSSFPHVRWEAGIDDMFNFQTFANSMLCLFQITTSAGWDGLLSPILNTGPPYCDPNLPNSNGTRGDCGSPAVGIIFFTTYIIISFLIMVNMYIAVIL

Row | Structure (SMILES) | pIC50
1 | NC(=O)c1cccc(NC(=O)c2cc(C(F)(F)F)ccc2Oc2ccccc2OC(F)F)c1 [Compound 285, N-(3-carbamoylphenyl)-2-(2-(difluoromethoxy)phenoxy)-5-(trifluoromethyl)benzamide] | 7.14
2 | Cc1cc(F)ccc1Oc1cccc(C(F)(F)F)c1C(=O)Nc1cccc(C(N)=O)c1 [Compound 258, N-(3-carbamoylphenyl)-2-(4-fluoro-2-methylphenoxy)-6-(trifluoromethyl)benzamide] | 7.07
3 | NC(=O)c1ccc(NC(=O)c2c(Oc3ccc(F)cc3Cl)cccc2C(F)(F)F)cn1 [Compound 256, 5-[[2-(2-chloro-4-fluoro-phenoxy)-6-(trifluoromethyl)benzoyl]amino]pyridine-2-carboxamide] | 6.26
4 | NC(=O)c1cc(NC(=O)c2c(Oc3ccc(F)cc3Cl)cccc2C(F)(F)F)ccc1Cl [Compound 254, N-(3-carbamoyl-4-chlorophenyl)-2-(2-chloro-4-fluorophenoxy)-6-(trifluoromethyl)benzamide] | 6.59
5 | Cc1cc(Cl)ccc1Oc1ccc(C(F)(F)F)cc1C(=O)Nc1cccc(C(N)=O)c1 [Compound 284, N-(3-carbamoylphenyl)-2-(4-chloro-2-methylphenoxy)-5-(trifluoromethyl)benzamide] | 7.37
6 | CC(C)(C)c1ccc(C(=O)Nc2ccnc(C(N)=O)c2)c(Oc2ccc(C(F)(F)F)nc2)c1 [Compound 266, 4-(4-(tert-butyl)-2-((6-(trifluoromethyl)pyridin-3-yl)oxy)benzamido)picolinamide] | 4.77
7 | NC(=O)c1cccc(NC(=O)c2cc(C(F)(F)F)ccc2Oc2ccccc2Cl)c1 [Compound 283, N-(3-carbamoylphenyl)-2-(2-chlorophenoxy)-5-(trifluoromethyl)benzamide] | 7.09
8 | CC(C)Oc1ccccc1Oc1ccc(C(F)(F)F)cc1C(=O)Nc1cccc(C(N)=O)c1 [Compound 282, N-(3-carbamoylphenyl)-2-(2-isopropoxyphenoxy)-5-(trifluoromethyl)benzamide] | 6.89
9 | COc1ccc(Oc2cc(Cl)c(Cl)cc2C(=O)Nc2cccc(C(N)=O)c2)c(F)c1 [Compound 273, N-(3-carbamoylphenyl)-4,5-dichloro-2-(2-fluoro-4-methoxy-phenoxy)benzamide] | 7.52
10 | NC(=O)c1cccc(NC(=O)c2c(Oc3ccc(F)cc3Cl)cccc2C(F)(F)F)c1 [Compound 260, N-(3-carbamoylphenyl)-2-(2-chloro-4-fluorophenoxy)-6-(trifluoromethyl)benzamide] | 6.78
11 | COc1cc(F)ccc1Oc1cc(Cl)c(Cl)cc1C(=O)Nc1ccc(C(N)=O)cc1 [Compound 274, N-(4-carbamoylphenyl)-4,5-dichloro-2-(4-fluoro-2-methoxy-phenoxy)benzamide] | 8.70
12 | NC(=O)c1cccc(NC(=O)c2cc(C(F)(F)F)ccc2Oc2ccc(F)cc2)c1 [Compound 276, N-(3-carbamoylphenyl)-2-(4-fluorophenoxy)-5-(trifluoromethyl)benzamide] | 7.01
13 | NC(=O)c1cccc(NC(=O)c2c(Oc3ccc(F)cc3)cccc2C(F)(F)F)c1 [Compound 257, N-(3-carbamoylphenyl)-2-(4-fluorophenoxy)-6-(trifluoromethyl)benzamide] | 6.38
14 | COc1ccc(Oc2cc(C(F)(F)C(F)(F)F)ccc2C(=O)Nc2cccc(C(N)=O)c2)cc1F [Compound 250, N-(3-carbamoylphenyl)-2-(3-fluoro-4-methoxyphenoxy)-4-(1,1,2,2,2-pentafluoroethyl)benzamide] | 7.19
15 | Cc1ccc(C(N)=O)cc1NC(=O)c1c(Oc2ccc(F)cc2Cl)cccc1C(F)(F)F [Compound 255, N-(5-carbamoyl-2-methylphenyl)-2-(2-chloro-4-fluorophenoxy)-6-(trifluoromethyl)benzamide] | 5.14
16 | COc1cc(F)ccc1Oc1cc(Cl)c(Cl)cc1C(=O)Nc1cccc(C(N)=O)c1 [Compound 270, N-(3-carbamoylphenyl)-4,5-dichloro-2-(4-fluoro-2-methoxy-phenoxy)benzamide] | 8.05
17 | NC(=O)c1cccc(NC(=O)c2cc(Cl)c(Cl)cc2Oc2ccc(OC(F)(F)F)cc2)c1 [Compound 272, N-(3-carbamoylphenyl)-4,5-dichloro-2-[4-(trifluoromethoxy)phenoxy]benzamide] | 8.10
18 | COc1ccc(Oc2ccc(C(F)(F)F)cc2C(=O)Nc2cccc(C(N)=O)c2)c(OC)c1 [Compound 281, N-(3-carbamoylphenyl)-2-(2,4-dimethoxyphenoxy)-5-(trifluoromethyl)benzamide] | 7.41
19 | CC(C)(C)c1ccc(C(=O)Nc2cc(C(N)=O)ccn2)c(Oc2ccc(C(F)(F)F)nc2)c1 [Compound 262] | < 4.60

Second part, the compound after the results:

Row | pIC50 | Structure (SMILES)
20 | 7.74 | Cc1cc(F)ccc1Oc1ccc(C(F)(F)F)cc1C(=O)Nc1cccc(C(N)=O)c1 [Compound 296, N-(3-carbamoylphenyl)-2-(4-fluoro-2-methylphenoxy)-5-(trifluoromethyl)benzamide]
21 | 6.89 | COc1ccc(Oc2cc(C(F)(F)F)ccc2C(=O)Nc2cccc(C(N)=O)c2)c(Cl)c1 [Compound 299, N-(3-carbamoylphenyl)-2-[2-chloro-4-(methoxy)phenoxy]-4-(trifluoromethyl)benzamide]
22 | 7.47 | COc1cc(F)ccc1Oc1ccc(C(F)(F)F)cc1C(=O)Nc1cccc(C(N)=O)c1 [Compound 288, N-(3-carbamoylphenyl)-2-(4-fluoro-2-methoxyphenoxy)-5-(trifluoromethyl)benzamide]
23 | 7.08 | COc1ccccc1Oc1ccc(C(F)(F)F)cc1C(=O)Nc1cccc(C(N)=O)c1 [Compound 287, N-(3-carbamoylphenyl)-2-(2-methoxyphenoxy)-5-(trifluoromethyl)benzamide]
24 | 7.21 | NC(=O)c1cccc(NC(=O)c2ccc(C(F)(F)F)cc2Oc2ccc(F)cc2)c1 [Compound 300, N-(3-carbamoylphenyl)-2-[4-fluorophenoxy]-4-(trifluoromethyl)benzamide]
25 | 5.85 | Cc1cc(F)ccc1Oc1ccc(C(F)(F)F)cc1C(=O)Nc1cccc(C(N)=O)c1C [Compound 291, N-(3-carbamoyl-2-methylphenyl)-2-(4-fluoro-2-methylphenoxy)-5-(trifluoromethyl)benzamide]
26 | 7.24 | COc1ccc(Oc2cc(C(F)(F)F)ccc2C(=O)Nc2cccc(C(N)=O)c2)c(OC)c1 [Compound 301, N-(3-carbamoylphenyl)-2-[2,4-(dimethoxy)phenoxy]-4-(trifluoromethyl)benzamide]
27 | 7.44 | NC(=O)c1cccc(NC(=O)c2cc(C(F)(F)F)ccc2Oc2ccc(F)cc2Cl)c1 [Compound 289, N-(3-carbamoylphenyl)-2-(2-chloro-4-fluorophenoxy)-5-(trifluoromethyl)benzamide]
28 | 7.43 | Cc1cc(F)ccc1Oc1ccc(C(F)(F)F)cc1C(=O)Nc1ccc(C)c(C(N)=O)c1 [Compound 294, N-(3-carbamoyl-4-methylphenyl)-2-(4-fluoro-2-methylphenoxy)-5-(trifluoromethyl)benzamide]
29 | 7.85 | COc1cc(F)ccc1Oc1cc(C(F)(F)F)ccc1C(=O)Nc1cccc(C(N)=O)c1 [Compound 298, N-(3-Carbamoylphenyl)-2-[4-fluoro-2-(methoxy)phenoxy]-4-(trifluoromethyl)benzamide]
30 | 7.59 | COc1cc(Cl)ccc1Oc1cc(C(F)(F)F)ccc1C(=O)Nc1cccc(C(N)=O)c1 [Compound 302, N-(3-carbamoylphenyl)-2-[4-chloro-2-(methoxy)phenoxy]-4-(trifluoromethyl)benzamide]

Reference: patent publication US12281057B2 (VERTEX PHARMACEUTICALS INCORPORATED, priority 2017, dated 2025)
